Assay results from patent US4925968A, “N-acyl-N-naphthoylglycines as aldose reductase inhibitors” (American Home Products Corporation, priority 1989, dated 1990).

Test system: aldose reductase
Assay: galactitol (dulcitol) accumulation in lens, sciatic nerve and diaphragm of galactosemic rats
Assay type: in vivo, rat (Sprague-Dawley, male)
Conditions: 4 days; for % Lowering dulcitol accumulation IN VIVO, D: diaphragm; for % Lowering dulcitol accumulation IN VIVO, L: lens
Text: Such experiments are exemplified hereinbelow after the listing of the following general comments pertaining to these experiments: (a) Four or more groups of six male rats, 50-70 g, Sprague-Dawley strain, were used. The first group, the control group, was fed a mixture of laboratory chow (rodent Laboratory Chow, Purina) and glucose at 20% (w/w %) concentration. […] The test compound was either admixed to the diet or administered by gavage. In experiments involving compound administration in the diet, the average dose administered was calculated from the actual food intake of the animals in each group. The concentration of galactose in the diet of the treated groups was the same as that for the untreated galactosemic group. (b) After four days, the animals were killed by decapitation. The eyeballs were removed and punctured with a razor blade; the freed lenses were rolled gently on filter paper and weighed. The sciatic nerves were dissected as completely as possible and weighed. Both tissues when frozen can be kept up to two weeks before being analyzed for galactitol. […] Only two minor reagent changes were made: (a) The rinsing mixture was an aqueous 5% (w/v) trichloroacetic acid solution and (b) the stock solution was prepared by dissolving 25 mg of dulcitol in 100 mL of an aqueous trichloroacetic acid solution. [N.B.: For each experiment the average value found in the tissue from rats fed the glucose diet was subtracted from the individual values found in the corresponding tissue in galactose-fed rats to obtain the amount of polyol accumulated.] […] In the present case the procedure of Hayman and Kinoshita was modified in that the final chromatography step was omitted in the preparation of the enzyme from bovine lens. […] The figures under L, N, and D represent the percentage decrease of galactitol accumulation in the tissues of the lens, sciatic nerve, and diaphragm, respectively, for treated rats as compared to untreated rats.

CCOC(=O)N(CC(=O)O)C(=O)c1cccc2c(C(F)(F)F)c(OC)ccc12 [Example 1, N-[[6-Methoxy-5-(trifluoromethyl)-1-naphthalenyl]carbonyl]-N-[(ethoxy)carbonyl]glycine]
% Lowering dulcitol accumulation IN VIVO, D (57 mg/kg): 70%
% Lowering dulcitol accumulation IN VIVO, D (97 mg/kg): 83%
% Lowering dulcitol accumulation IN VIVO, L (57 mg/kg): 19%
% Lowering dulcitol accumulation IN VIVO, L (97 mg/kg): 12%

COC(=O)N(CC(=O)O)C(=O)c1cccc2c(C(F)(F)F)c(OC)ccc12 [Example 2, N-[[6-Methoxy-5-(trifluoromethyl)-1-naphthalenyl]-carbonyl]-N-[(methoxy)carbonyl]glycine]
% Lowering dulcitol accumulation IN VIVO, D (48 mg/kg): 54%
% Lowering dulcitol accumulation IN VIVO, L (48 mg/kg): N.S.

CCCOC(=O)N(CC(=O)O)C(=O)c1cccc2c(C(F)(F)F)c(OC)ccc12 [Example 3]
% Lowering dulcitol accumulation IN VIVO, D (48 mg/kg): N.S.
% Lowering dulcitol accumulation IN VIVO, L (48 mg/kg): N.S.

COc1ccc2c(C(=O)N(CC(=O)O)C(=O)OC(C)C)cccc2c1C(F)(F)F [Example 4]
% Lowering dulcitol accumulation IN VIVO, D (dose (mg/kg) printed as N.S.): N.S.
% Lowering dulcitol accumulation IN VIVO, L (dose (mg/kg) printed as N.S.): N.S.

COc1ccc2c(C(=O)N(CC(=O)O)C(=O)OCC(C)(C)C)cccc2c1C(F)(F)F [Example 5]
% Lowering dulcitol accumulation IN VIVO, D (105 mg/kg): N.S.
% Lowering dulcitol accumulation IN VIVO, L (105 mg/kg): N.S.

COc1ccc2c(C(=O)N(CC(=O)O)C(=O)OCc3ccccc3)cccc2c1C(F)(F)F [Example 6]
% Lowering dulcitol accumulation IN VIVO, D (67 mg/kg): N.S.
% Lowering dulcitol accumulation IN VIVO, L (67 mg/kg): N.S.

COc1ccc2c(C(=O)N(CC(=O)O)C(=O)OCc3ccc(Cl)c([N+](=O)[O-])c3)cccc2c1C(F)(F)F [Example 7]
% Lowering dulcitol accumulation IN VIVO, D (107 mg/kg): N.S.
% Lowering dulcitol accumulation IN VIVO, L (107 mg/kg): N.S.

COc1ccc2c(C(=O)N(C=O)CC(=O)O)cccc2c1C(F)(F)F [Example 8, N-Formyl-N-[[6-methoxy-5-(trifluoromethyl)-1-naphthalenyl]carbonyl]glycine]
% Lowering dulcitol accumulation IN VIVO, D (107 mg/kg): 82%
% Lowering dulcitol accumulation IN VIVO, L (107 mg/kg): 13%

COc1ccc2c(C(=O)N(CC(=O)O)C(C)=O)cccc2c1C(F)(F)F [Example 9]
% Lowering dulcitol accumulation IN VIVO, D (100 mg/kg): 39%
% Lowering dulcitol accumulation IN VIVO, L (100 mg/kg): N.S.

COc1ccc2c(C(=O)N(CC(=O)O)C(=O)c3ccccc3)cccc2c1C(F)(F)F [Example 10, N-Benzoyl-N-[[6-methoxy-5-(trifluoromethyl)-1-naphthalenyl]carbonyl]glycine]
% Lowering dulcitol accumulation IN VIVO, D (50 mg/kg): N.S.
% Lowering dulcitol accumulation IN VIVO, L (50 mg/kg): N.S.

COC(=O)N(CC(=O)O)C(=O)c1cccc2c(Br)cccc12 [Example 12]
% Lowering dulcitol accumulation IN VIVO, D (102 mg/kg): 24%
% Lowering dulcitol accumulation IN VIVO, L (102 mg/kg): N.S.

O=CN(CC(=O)O)C(=O)c1cccc2c(Br)cccc12 [Example 14]
% Lowering dulcitol accumulation IN VIVO, D (104 mg/kg): 17%
% Lowering dulcitol accumulation IN VIVO, L (104 mg/kg): N.S.

CC(=O)N(CC(=O)O)C(=O)c1cccc2c(Br)cccc12 [Example 15]
% Lowering dulcitol accumulation IN VIVO, D (112 mg/kg): N.S.
% Lowering dulcitol accumulation IN VIVO, L (112 mg/kg): N.S.

O=C(O)CN(C(=O)c1ccccc1)C(=O)c1cccc2c(Br)cccc12 [Example 16]
% Lowering dulcitol accumulation IN VIVO, D (111 mg/kg): N.S.
% Lowering dulcitol accumulation IN VIVO, L (111 mg/kg): N.S.
